# Where “and” joins values, the source holds several entries; their conditions need not be identical. Equal values may be shown once. Read-outs that look alike come from different tables or passages of the source. Residues, ends and D or L forms follow the SMILES beside them.
# Legend:
# [1] = target: T1, hKV11.1 (Homo sapiens, UniProt Q12809); test: in vitro; conditions: pH 7.4
# [2] = tested on: hNaV1.2, 1.5 and 1.7–1.8, hCaV1.2 and hKV11.1 currents; conditions: for Hill number nH, all concentration–response curves: SD
# [3] = target: T1, hKV11.1
# [4] = target: hCaV1.2 (Homo sapiens, UniProt Q13936); test: cell-based; conditions: SD
# [5] = target: hNaV1.5 (Homo sapiens, UniProt Q14524); test: cell-based; conditions: IC50 on hNaV1.5 current; SD
# [6] = target: hNaV1.8 (Homo sapiens, UniProt Q9Y5Y9); test: cell-based; assay type: cell-based
# hNaV1.8, sequence (Q07699 19-218): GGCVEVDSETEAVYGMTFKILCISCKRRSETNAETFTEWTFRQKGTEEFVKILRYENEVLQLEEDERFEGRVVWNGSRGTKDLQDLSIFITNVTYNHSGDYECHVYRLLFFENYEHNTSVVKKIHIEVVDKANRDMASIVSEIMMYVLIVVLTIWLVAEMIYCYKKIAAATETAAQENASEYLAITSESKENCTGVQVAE
# hNaV1.8, sequence (Q9Y5Y9 whole entry): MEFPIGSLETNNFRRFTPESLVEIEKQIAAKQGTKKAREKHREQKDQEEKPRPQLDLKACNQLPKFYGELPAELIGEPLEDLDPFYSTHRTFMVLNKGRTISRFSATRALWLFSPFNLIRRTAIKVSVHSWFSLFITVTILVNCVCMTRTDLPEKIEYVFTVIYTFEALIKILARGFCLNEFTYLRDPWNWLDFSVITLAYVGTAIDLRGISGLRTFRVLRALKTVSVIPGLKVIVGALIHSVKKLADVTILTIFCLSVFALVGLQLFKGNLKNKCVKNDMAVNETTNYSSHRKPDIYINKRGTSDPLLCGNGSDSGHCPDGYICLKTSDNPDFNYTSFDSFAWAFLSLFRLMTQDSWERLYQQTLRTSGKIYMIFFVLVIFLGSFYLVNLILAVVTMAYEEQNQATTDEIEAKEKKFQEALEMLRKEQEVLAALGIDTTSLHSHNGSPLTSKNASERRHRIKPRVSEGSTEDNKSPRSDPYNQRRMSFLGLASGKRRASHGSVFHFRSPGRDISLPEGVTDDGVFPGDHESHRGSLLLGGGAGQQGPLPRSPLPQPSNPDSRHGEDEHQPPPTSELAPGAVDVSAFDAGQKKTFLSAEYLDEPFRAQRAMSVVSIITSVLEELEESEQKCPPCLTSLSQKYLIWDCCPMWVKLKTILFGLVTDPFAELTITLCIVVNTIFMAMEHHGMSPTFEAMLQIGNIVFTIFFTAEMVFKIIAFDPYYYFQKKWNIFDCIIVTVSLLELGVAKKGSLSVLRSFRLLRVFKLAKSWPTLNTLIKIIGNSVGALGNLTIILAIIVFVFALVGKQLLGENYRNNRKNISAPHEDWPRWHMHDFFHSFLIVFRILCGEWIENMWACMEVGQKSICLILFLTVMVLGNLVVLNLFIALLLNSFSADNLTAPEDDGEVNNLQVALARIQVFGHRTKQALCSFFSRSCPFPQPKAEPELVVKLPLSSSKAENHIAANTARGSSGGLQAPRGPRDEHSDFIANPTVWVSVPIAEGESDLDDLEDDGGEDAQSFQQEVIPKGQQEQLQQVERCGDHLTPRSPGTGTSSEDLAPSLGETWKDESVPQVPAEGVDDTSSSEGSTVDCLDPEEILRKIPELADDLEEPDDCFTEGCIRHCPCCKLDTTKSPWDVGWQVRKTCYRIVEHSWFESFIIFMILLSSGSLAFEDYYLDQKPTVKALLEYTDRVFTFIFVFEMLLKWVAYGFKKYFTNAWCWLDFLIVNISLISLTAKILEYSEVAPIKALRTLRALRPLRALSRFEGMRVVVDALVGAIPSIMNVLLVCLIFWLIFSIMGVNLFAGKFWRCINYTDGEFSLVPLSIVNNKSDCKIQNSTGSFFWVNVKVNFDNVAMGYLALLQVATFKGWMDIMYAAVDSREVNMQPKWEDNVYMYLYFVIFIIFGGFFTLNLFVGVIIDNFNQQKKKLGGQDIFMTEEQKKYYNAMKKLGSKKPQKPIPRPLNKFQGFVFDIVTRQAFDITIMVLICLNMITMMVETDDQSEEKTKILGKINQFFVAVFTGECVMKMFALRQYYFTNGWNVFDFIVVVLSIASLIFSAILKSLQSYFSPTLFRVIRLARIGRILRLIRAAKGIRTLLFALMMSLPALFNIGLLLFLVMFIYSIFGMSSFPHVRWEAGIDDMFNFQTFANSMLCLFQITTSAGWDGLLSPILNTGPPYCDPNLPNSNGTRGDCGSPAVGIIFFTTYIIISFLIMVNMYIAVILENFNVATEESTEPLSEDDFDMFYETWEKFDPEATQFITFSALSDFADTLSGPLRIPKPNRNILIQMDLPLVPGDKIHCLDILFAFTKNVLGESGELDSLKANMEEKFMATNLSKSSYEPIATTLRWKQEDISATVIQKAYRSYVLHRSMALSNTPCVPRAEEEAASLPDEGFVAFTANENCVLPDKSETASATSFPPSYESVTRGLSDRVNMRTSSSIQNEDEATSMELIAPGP
# [7] = target: T2, hNaV1.7 (Homo sapiens, UniProt Q15858); test: cell-based; assay type: cell-based; conditions: for IC50: SD
# [8] = target: hNaV1.2 (Homo sapiens, UniProt Q99250); test: cell-based; conditions: SD
# hNaV1.2, sequence (Q99250 whole entry): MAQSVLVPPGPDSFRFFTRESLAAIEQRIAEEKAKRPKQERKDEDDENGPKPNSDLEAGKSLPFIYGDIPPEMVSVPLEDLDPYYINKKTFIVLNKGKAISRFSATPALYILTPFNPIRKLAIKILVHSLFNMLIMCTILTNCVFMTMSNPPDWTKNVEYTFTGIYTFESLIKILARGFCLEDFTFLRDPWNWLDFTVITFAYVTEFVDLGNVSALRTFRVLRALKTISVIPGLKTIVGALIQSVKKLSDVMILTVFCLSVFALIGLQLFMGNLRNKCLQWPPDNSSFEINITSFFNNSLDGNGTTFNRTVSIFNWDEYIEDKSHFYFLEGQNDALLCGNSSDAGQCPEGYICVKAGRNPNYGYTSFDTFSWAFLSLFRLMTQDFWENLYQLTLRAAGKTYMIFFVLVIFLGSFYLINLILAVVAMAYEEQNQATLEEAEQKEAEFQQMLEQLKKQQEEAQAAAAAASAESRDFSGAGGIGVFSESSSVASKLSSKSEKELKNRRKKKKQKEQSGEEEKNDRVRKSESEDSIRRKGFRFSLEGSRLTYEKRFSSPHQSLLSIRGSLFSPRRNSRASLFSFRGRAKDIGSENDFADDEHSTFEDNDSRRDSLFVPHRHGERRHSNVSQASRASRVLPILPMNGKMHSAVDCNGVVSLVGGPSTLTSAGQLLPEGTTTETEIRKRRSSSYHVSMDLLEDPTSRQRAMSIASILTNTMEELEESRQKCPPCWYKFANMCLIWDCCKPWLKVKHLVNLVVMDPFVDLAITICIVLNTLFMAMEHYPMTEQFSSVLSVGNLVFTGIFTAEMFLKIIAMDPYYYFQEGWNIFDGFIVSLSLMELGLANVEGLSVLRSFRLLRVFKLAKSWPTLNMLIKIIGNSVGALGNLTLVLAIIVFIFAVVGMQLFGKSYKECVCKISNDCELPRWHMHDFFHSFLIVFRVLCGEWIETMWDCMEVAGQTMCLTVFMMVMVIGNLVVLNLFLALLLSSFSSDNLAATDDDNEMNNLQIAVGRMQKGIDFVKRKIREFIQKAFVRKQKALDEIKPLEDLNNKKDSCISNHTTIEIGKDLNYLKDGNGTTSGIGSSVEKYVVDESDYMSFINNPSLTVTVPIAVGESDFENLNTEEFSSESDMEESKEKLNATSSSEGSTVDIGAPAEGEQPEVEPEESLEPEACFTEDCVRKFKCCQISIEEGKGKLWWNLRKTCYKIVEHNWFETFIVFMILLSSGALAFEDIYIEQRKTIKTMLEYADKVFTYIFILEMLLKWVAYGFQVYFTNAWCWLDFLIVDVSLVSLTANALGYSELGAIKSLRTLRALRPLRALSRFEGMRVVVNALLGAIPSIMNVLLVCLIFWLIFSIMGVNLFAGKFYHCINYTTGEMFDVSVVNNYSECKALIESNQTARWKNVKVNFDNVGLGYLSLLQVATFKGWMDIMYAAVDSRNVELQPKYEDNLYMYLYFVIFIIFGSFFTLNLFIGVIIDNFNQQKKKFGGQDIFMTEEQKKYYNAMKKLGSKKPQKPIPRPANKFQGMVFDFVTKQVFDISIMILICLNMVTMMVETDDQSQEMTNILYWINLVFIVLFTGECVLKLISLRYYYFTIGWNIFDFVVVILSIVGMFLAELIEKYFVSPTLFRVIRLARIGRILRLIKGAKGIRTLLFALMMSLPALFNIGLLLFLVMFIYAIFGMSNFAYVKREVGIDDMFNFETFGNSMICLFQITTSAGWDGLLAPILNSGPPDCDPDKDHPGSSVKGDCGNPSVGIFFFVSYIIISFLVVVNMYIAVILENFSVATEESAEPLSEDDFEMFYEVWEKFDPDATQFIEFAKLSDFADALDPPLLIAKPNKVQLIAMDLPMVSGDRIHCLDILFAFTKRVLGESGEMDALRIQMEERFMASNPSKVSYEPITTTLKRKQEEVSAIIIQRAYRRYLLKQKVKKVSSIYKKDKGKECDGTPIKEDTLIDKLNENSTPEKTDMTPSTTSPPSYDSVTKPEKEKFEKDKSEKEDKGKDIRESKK
# [9] = tested on: OD1-induced painful behavior of mice; conditions: mouse, in vivo
# [10] = tested on: NaV1.8; conditions: cited from earlier work
# [11] = target: hNaV1.6 (Homo sapiens, UniProt Q9UQD0); test: cell-based; conditions: SD
# [12] = tested on: NaV1.5; conditions: cited from earlier work
# [13] = tested on: acute heat responses; conditions: in vivo, ip; cited from earlier work
# [14] = tested on: NaV1.1; conditions: cited from earlier work
# [15] = tested on: Drosophila Para/TipE; conditions: cited from earlier work
# [16] = tested on: paw formalin injection pain; conditions: mouse, in vivo; cited from earlier work
# [17] = tested on: CFA-induced heat hyperalgesia; conditions: mouse, in vivo; cited from earlier work
# [18] = tested on: NaV1.2; conditions: cited from earlier work
# [19] = target: hNaV1.3 (Homo sapiens, UniProt Q9NY46); test: cell-based; conditions: SD
# [20] = tested on: NaV1.7; conditions: cited from earlier work
# [21] = tested on: NaV1.3; conditions: cited from earlier work
# [22] = target: hNaV1.1 (Homo sapiens, UniProt P35498); test: cell-based; conditions: SD
# [23] = tested on: hNaV1.1–1.8; assay type: cell-based, human; conditions: read-out: IC90–95 (compound concentration necessary to inhibit 90–95% of current)
# [24] = target: T2, hNaV1.7; conditions: cited from earlier work
# [25] = tested on: OD1-induced painful behavior of mice; conditions: mouse, in vivo; cited from earlier work
compound,measurement,setting,value
"CC[C@H](C)[C@H](NC(=O)[C@H](CC(=O)O)NC(=O)[C@@H](NC(=O)[C@@H]1CCCN1C(=O)[C@@H](N)CCCNC(=N)N)[C@@H](C)O)C(=O)N[C@@H](CCCCN)C(=O)N[C@H]1CSSC[C@@H]2NC(=O)[C@H](CCCNC(=N)N)NC(=O)CNC(=O)[C@H](CC(N)=O)NC(=O)[C@H]([C@@H](C)O)NC(=O)[C@H](CCCCN)NC(=O)CNC(=O)[C@H](Cc3ccccc3)NC(=O)[C@H](CCCNC(=N)N)NC(=O)[C@H](CO)NC(=O)[C@H](CCCCN)NC(=O)[C@@H]3CSSC[C@@H](C(=O)N[C@@H](Cc4ccccc4)C(=O)O)NC(=O)[C@H](CC(=O)O)NC(=O)[C@H](CSSC[C@H](NC(=O)[C@H](CCC(N)=O)NC(=O)[C@H](Cc4ccc(O)cc4)NC(=O)[C@H](CO)NC(=O)[C@H](CCC(=O)O)NC(=O)[C@H](CO)NC1=O)C(=O)N[C@@H](Cc1ccccc1)C(=O)N1CCC[C@H]1C(=O)N[C@@H](C(C)C)C(=O)N3)NC(=O)[C@H](Cc1ccccc1)NC(=O)CNC(=O)[C@H](CC(N)=O)NC(=O)[C@H](C(C)C)NC2=O [BeKm-1] (HELM PEPTIDE1{R.P.T.D.I.K.C.S.E.S.Y.Q.C.F.P.V.C.K.S.R.F.G.K.T.N.G.R.C.V.N.G.F.C.D.C.F}$PEPTIDE1,PEPTIDE1,7:R3-28:R3|PEPTIDE1,PEPTIDE1,13:R3-33:R3|PEPTIDE1,PEPTIDE1,17:R3-35:R3$$$V2.0)",IC90,[1],1000 nM
"CC(C)C[C@@H]1NC(=O)[C@@H](NC(=O)[C@H](C)N)CSSC[C@@H]2NC(=O)[C@@H]3CSSC[C@@H](C(=O)N[C@@H](CCCNC(=N)N)C(=O)N[C@@H](Cc4ccc(O)cc4)C(=O)N[C@@H](CCCCN)C(=O)N[C@@H](CC(C)C)C(=O)N[C@@H](Cc4ccccc4)C(=O)O)NC(=O)[C@H](Cc4c[nH]c5ccccc45)NC(=O)[C@@H]4CCCN4C(=O)[C@H](Cc4ccc(O)cc4)NC(=O)[C@H](CCCCN)NC(=O)[C@H](Cc4c[nH]c5ccccc45)NC(=O)[C@H](CCC(=O)O)NC(=O)[C@H](CSSC[C@H](NC(=O)[C@H](CO)NC(=O)[C@H](C)NC(=O)[C@H](Cc4c[nH]c5ccccc45)NC(=O)[C@H](CCC(N)=O)NC(=O)CNC1=O)C(=O)N[C@@H](CC(=O)O)C(=O)N1CCC[C@H]1C(=O)N[C@@H](CCCCN)C(=O)N[C@@H](C)C(=O)N[C@@H](CO)C(=O)N[C@@H](CCCCN)C(=O)N3)NC(=O)[C@H](C)NC(=O)[C@H](Cc1ccc(O)cc1)NC(=O)[C@H](CC(N)=O)NC(=O)[C@@H]1CCCN1C2=O [D7A] (HELM PEPTIDE1{A.C.L.G.Q.W.A.S.C.D.P.K.A.S.K.C.C.P.N.Y.A.C.E.W.K.Y.P.W.C.R.Y.K.L.F}$PEPTIDE1,PEPTIDE1,2:R3-17:R3|PEPTIDE1,PEPTIDE1,9:R3-22:R3|PEPTIDE1,PEPTIDE1,16:R3-29:R3$$$V2.0)",gain of affinity versus PhlTx1,[2],2.5-7.4 fold
same,"Hill number nH, all concentration–response curves",[2],1.06 ± 0.13
same,activity on the KV11.1 subtype,[3],inactive
same,IC50,[4],800 ± 253 nM
same,IC50,[5],93.3 ± 32.9 nM
same,IC50,[6]; SD,4000 ± 500 nM
same,IC50,[7]; IC50 on hNaV1.7 current,73 ± 23.7 nM
same,IC50,[7]; hNaV1.7 IC50,47 nM
same,IC50,[8],47.3 ± 5.2 nM
"CC(C)C[C@@H]1NC(=O)[C@@H](NC(=O)[C@H](C)N)CSSC[C@@H]2NC(=O)[C@@H]3CSSC[C@@H](C(=O)N[C@@H](CCCNC(=N)N)C(=O)N[C@@H](Cc4ccc(O)cc4)C(=O)N[C@@H](CCCCN)C(=O)N[C@@H](CC(C)C)C(=O)N[C@@H](Cc4ccccc4)C(=O)O)NC(=O)[C@H](Cc4c[nH]c5ccccc45)NC(=O)[C@@H]4CCCN4C(=O)[C@H](Cc4ccc(O)cc4)NC(=O)[C@H](CCCCN)NC(=O)[C@H](Cc4c[nH]c5ccccc45)NC(=O)[C@H](CCC(=O)O)NC(=O)[C@H](CSSC[C@H](NC(=O)[C@H](CO)NC(=O)[C@H](CC(=O)O)NC(=O)[C@H](Cc4c[nH]c5ccccc45)NC(=O)[C@H](CCC(N)=O)NC(=O)CNC1=O)C(=O)N[C@@H](CC(=O)O)C(=O)N1CCC[C@H]1C(=O)N[C@@H](CCCCN)C(=O)N[C@@H](C)C(=O)N[C@@H](CO)C(=O)N[C@@H](CCCCN)C(=O)N3)NC(=O)[C@H](C)NC(=O)[C@H](Cc1ccc(O)cc1)NC(=O)[C@H](CC(N)=O)NC(=O)[C@@H]1CCCN1C2=O [PhlTx1] (HELM PEPTIDE1{A.C.L.G.Q.W.D.S.C.D.P.K.A.S.K.C.C.P.N.Y.A.C.E.W.K.Y.P.W.C.R.Y.K.L.F}$PEPTIDE1,PEPTIDE1,2:R3-17:R3|PEPTIDE1,PEPTIDE1,9:R3-22:R3|PEPTIDE1,PEPTIDE1,16:R3-29:R3$$$V2.0)","Hill number nH, all concentration–response curves",[2],1.05 ± 0.15
same,cardiac or neuromuscular side-effects,[9],no sign of cardiac or neuromuscular side-effects
same,inhibition of NaV1.8 current,[10],less than 10%
same,IC50,[11],491 ± 109 nM
same,effect on the hKV11.1 current,[3],no effect
same,IC50,[4],5900 ± 2100 nM
same,IC50,[5],711 nM and 396 nM
same,IC50,[6],> 10000 nM
same,effect on the hNaV1.8 current,[6],unaffected
same,inhibition of NaV1.5 current,[12],less than 10%
same,effect on mouse acute heat responses,[13],ineffective
same,inhibition of NaV1.1 current,[14],less than 10%
same,inhibition of Drosophila Para/TipE current,[15],less than 10%
same,effects in acute and inflammatory neuropathic (paw formalin injection) pain,[16],Anti-allodynic and analgesic effects
same,pharmacological activity on the hNaV1.7 current,[7],strongly inhibit
same,selectivity towards the TTX-R (except hNaV1.8) and other TTX-S (except hNaV1.4) hNaV subtypes,[7],less than 10 fold
same,IC50,[7]; IC50 on hNaV1.7 current,309 ± 17 nM
same,IC50,[7]; hNaV1.7 IC50,254 nM
same,analgesia in CFA-induced heat hyperalgesia,[17],ineffective
same,IC50,[8],73.7 ± 46.3 nM
same,IC50,[8]; read-out: IC50 on hNaV1.2 current,279 ± 6.1 nM
same,inhibition of NaV1.2 current,[18],less than 10%
same,IC50,[19],202 ± 110 nM
same,inhibition of NaV1.7 current,[20],greater than 90%
same,IC50,[20]; read-out: mean IC50 for interaction with the NaV1.7 subtype,260 nM
same,inhibition of NaV1.3 current,[21],less than 10%
same,IC50,[22],280 ± 118 nM
"NC1=N[C@H](O)[C@H]2[C@H]3O[C@]4(O)O[C@@H]([C@@H](O)[C@@]2(N1)[C@@H]4O)[C@]3(O)CO [Tetrodotoxin (citrate), Tetrodotoxin]",IC90,[23],1000 nM
"CcoTx2: spider toxin, NaV ligand (CLGWFKSCDPKNDKCCKNYTCSRRDRWCKYYL)",IC50,[24],95 nM
same,concentration efficient to diminish or completely reverse the OD1-induced manifestations of pain,[25],1 µM
"Cd1a: spider toxin, NaV ligand (CLGWFKSCDPKNDKCCKNYSCSRRDRWCKYDL)",IC50,[24],16 nM
same,concentration efficient to diminish or completely reverse the OD1-induced manifestations of pain,[25],1 µM

# — PMC6784069 (Toxins, 2019)
